In article PMC11050823, “The Cyclic Imine Core Common to the Marine Macrocyclic Toxins Is Sufficient to Dictate Nicotinic Acetylcholine Receptor Antagonism” (Marine Drugs, 2024):
“Also recorded” adds a separate entry of the source. Like-named read-outs stand apart in the source and are kept apart here. Marks after values point to notes of the source that are not given here.

How the values were obtained:
[1] = target: Torpedo muscle-type α1_2βγδ nAChR (Torpedo marmorata, UniProt P02711+Q6S3H8+Q6S3H9); test: Manual TEVC recording of ACh-evoked currents in Xenopus oocytes micro-transplanted with Torpedo electrocyte membranes; type: cell-based; details: for Hill Slope: concentration-inhibition curve, ACh 25 µM
Sequence of Torpedo muscle-type α1_2βγδ nAChR (Torpedo marmorata, UniProt P02711+Q6S3H8+Q6S3H9) (P02711 25-461): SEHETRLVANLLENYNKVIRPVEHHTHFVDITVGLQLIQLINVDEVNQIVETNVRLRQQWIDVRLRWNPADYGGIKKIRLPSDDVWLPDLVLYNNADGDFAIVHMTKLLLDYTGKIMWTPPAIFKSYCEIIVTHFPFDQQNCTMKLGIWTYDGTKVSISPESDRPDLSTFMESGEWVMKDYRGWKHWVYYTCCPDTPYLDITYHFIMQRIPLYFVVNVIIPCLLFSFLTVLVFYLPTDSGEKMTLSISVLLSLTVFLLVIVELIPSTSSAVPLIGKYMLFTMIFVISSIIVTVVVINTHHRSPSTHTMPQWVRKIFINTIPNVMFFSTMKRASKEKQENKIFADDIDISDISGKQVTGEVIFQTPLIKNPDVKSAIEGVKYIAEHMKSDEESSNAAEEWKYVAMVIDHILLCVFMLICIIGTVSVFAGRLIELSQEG
Sequence of Torpedo muscle-type α1_2βγδ nAChR (Torpedo marmorata, UniProt P02711+Q6S3H8+Q6S3H9) (Q6S3H9 18-505): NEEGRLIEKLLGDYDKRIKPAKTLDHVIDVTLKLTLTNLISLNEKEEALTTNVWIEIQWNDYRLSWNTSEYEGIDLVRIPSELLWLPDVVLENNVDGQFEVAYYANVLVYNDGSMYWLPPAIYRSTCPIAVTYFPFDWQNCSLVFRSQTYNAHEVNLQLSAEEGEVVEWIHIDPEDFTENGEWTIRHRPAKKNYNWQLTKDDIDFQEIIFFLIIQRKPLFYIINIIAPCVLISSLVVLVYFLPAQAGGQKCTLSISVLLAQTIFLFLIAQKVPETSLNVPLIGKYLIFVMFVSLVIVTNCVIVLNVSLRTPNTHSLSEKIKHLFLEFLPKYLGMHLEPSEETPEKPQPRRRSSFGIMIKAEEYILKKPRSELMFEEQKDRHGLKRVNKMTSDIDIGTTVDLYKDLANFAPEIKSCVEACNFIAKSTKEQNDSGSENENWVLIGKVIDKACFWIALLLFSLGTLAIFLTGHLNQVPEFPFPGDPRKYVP
Sequence of Torpedo muscle-type α1_2βγδ nAChR (Torpedo marmorata, UniProt P02711+Q6S3H8+Q6S3H9) (Q6S3H8 22-522): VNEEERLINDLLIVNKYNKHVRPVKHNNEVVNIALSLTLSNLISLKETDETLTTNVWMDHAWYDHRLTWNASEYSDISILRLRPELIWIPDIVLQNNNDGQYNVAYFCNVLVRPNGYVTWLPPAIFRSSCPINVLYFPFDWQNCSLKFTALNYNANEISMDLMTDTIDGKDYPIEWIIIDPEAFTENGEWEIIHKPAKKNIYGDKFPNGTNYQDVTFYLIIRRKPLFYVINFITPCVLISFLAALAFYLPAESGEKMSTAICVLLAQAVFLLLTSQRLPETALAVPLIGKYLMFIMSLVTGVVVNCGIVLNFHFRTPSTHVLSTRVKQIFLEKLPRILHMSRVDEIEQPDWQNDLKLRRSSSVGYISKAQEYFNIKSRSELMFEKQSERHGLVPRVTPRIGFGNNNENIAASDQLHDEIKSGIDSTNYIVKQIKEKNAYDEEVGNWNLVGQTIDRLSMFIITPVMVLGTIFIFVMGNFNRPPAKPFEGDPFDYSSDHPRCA
Sequence of Torpedo muscle-type α1_2βγδ nAChR (Torpedo marmorata, UniProt P02711+Q6S3H8+Q6S3H9) (Q6S3I0 25-493 partner): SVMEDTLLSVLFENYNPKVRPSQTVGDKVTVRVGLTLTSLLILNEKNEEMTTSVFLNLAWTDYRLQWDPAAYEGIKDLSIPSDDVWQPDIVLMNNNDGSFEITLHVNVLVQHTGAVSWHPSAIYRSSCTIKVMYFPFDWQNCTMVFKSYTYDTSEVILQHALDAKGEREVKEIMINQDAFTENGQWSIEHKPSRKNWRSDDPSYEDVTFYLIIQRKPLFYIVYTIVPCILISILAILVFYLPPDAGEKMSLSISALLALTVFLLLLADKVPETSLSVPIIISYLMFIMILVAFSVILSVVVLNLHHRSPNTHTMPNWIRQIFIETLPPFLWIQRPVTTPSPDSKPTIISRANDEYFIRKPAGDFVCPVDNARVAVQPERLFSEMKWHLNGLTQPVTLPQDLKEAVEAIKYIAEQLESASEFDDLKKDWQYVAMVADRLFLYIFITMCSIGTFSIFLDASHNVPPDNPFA
Source text: (§1) Functional analysis of the (±)-4 racemate and (+)-4 R and (−)-4 S enantiomers used either manual or automated two-electrode voltage-clamp (TEVC) recordings on Xenopus laevis oocytes at −60 mV holding membrane potential. The oocytes were either micro-transplanted with Torpedo α1_2βγδ-enriched electrocyte membranes or transfected with human α7 or α4β2-encoding cDNAs. When applied alone (see Experimental Procedures), none of the three spiroimines induced nAChR channel opening, thereby discarding any agonistic activity toward these nAChR subtypes. Instead, when applied together with ACh at its EC50 concentration for each nAChR subtype, all three spiroimines clearly behaved as nicotinic antagonists, whose potency depended on the receptor subtype examined (Figure 2; Table 1).
(§2) The sources for live animals and biological materials, the procedures for nAChR microtransplantation and expression in oocytes, and the procedures for manual (α1_2βγδ nAChR) and automated (α7 and α4β2 nAChRs) TEVC recording are detailed in Appendix C. […] Then, the oocyte was perfused for 45 s with the tested spiroimine at a given concentration, immediately followed by the co-application of ACh and the spiroimine at the same concentrations and times as indicated above. The oocyte was washed with Ringer’s solution, and then recovery of the ACh-evoked current was recorded.
(§3) The concentration–inhibition curves were analyzed as previously detailed using the equation I = Imax [L]^nH/(EC50^nH + [L]^nH) (Equation (1)), where I is the measured agonist-evoked current, [L] is the agonist concentration, EC50 is the agonist concentration that evoked half the maximal current (I^max), and nH is the Hill coefficient. For antagonist inhibition, current (I) values were normalized to the I^max value recorded from the same oocyte to yield the fractional (%) response data. IC50 values were established from the concentration–response curves by fitting to the equation F = 1/[1 + ([X]/IC50)^nH] (Equation (2)), where F is the fractional response obtained in the presence of the inhibitor at concentration [X], and IC50 is the inhibitor concentration reducing the ACh-evoked amplitude by half. Data analysis was performed without constraints as Log[spiroimine] versus response (three parameters), with a Hill slope ~1. Statistical significance of differences between the control and test values was assessed using either the two-tailed Student’s “t” test or the Kolmogorov–Smirnov two-sample test and p < 0.05.
(§4) Torpedo membranes containing α1_2βγδ nAChR were microtransplanted into the oocyte cytoplasm by microinjecting a membrane suspension (50 nL at 2.5 µg/µL, i.e., 125 ng total protein, in 5 mM glycine) with an electronic micro-injector (Nanoliter2000 Micro4 Controller, World Precision Instruments Inc., Hertfordshire, UK) mounted on a microscope. Human α7 and α4β2 nAChRs were expressed through microinjection, into the oocyte nucleus, of α7 mRNA and of a 1:1 (w/w) mixture of α4 and β2 cDNAs (a ratio favoring expression of the α4_3β2_2 population over the α4_2β2_3 population) (50 nL at 1 µg/µL) in a pRc/CMV expression vector (Invitrogen). Oocytes were maintained at 18 °C and TEVC recordings were performed 1–4 days later in a room with controlled temperature (20 °C).
(§5) Manual TEVC on α1_2βγδ nAChR oocytes was carried out using an OC-725B amplifier (Warner Instrument Corp., Hamden, CT, USA). Voltage and current borosilicate glass microelectrodes were filled with KCl 3 M and had 0.5–1.5 MΩ tip resistances. For data acquisition and recording, a pCLAMP-9/Digidata-1322A system (Molecular Devices, San Jose, CA, USA) was used. The oocyte recording chamber of 300 μL was superfused at a high rate (8–12 mL.min^−1) with a modified oocyte Ringer’s solution made of HEPES 5 mM pH 7.4, NaCl 100 mM, KCl 2.8 mM, and BaCl2 0.3 mM, where BaCl2 substitution to the original CaCl2 prevents secondary activation of a Ca^2+-dependent Cl^− current. […]

human neuronal α7 nAChR = target: T1, human neuronal α7 nAChR (Homo sapiens, UniProt P36544); test: Automated TEVC recording of ACh-evoked currents in Xenopus oocytes expressing human α7 nAChR; type: cell-based; details: for Hill Slope: concentration-inhibition curve, ACh 100 µM; for Hill Slope / IC50: 95% confidence interval in parentheses; for IC50: inhibition of ACh-evoked current, ACh 100 µM (EC50), −60 mV
T1 construct: expressed in transfected cells; host or cells: Xenopus laevis oocytes
T1 sequence (P36544 23-502): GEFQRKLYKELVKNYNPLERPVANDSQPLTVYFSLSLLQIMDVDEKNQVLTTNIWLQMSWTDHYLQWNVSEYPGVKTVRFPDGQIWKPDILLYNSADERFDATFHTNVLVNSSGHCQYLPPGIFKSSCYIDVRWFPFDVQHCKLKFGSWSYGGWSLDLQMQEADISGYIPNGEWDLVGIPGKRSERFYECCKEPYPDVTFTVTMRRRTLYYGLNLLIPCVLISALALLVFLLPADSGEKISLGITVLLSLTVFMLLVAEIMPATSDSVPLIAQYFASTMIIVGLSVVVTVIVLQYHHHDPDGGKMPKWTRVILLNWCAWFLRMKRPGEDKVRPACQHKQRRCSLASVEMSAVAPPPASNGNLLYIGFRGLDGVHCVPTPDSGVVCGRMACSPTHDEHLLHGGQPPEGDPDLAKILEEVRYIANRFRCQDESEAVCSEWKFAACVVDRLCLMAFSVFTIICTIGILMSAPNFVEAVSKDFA
Source text: as §1, §2, §3, §4
(§6) Automated TEVC on α7 and α4β2 nAChR oocytes was performed using a HiClamp system (Multi Channel Systems, GmbH., Reutlingen, Germany). Oocytes free of follicular cells were transferred from the 96-wells of the oocyte microplate to a recording basket carrying the reference bath electrode. Oocytes were automatically impaled and clamped at a holding potential of −60 mV using borosilicate glass microelectrodes of 0.5–5 MΩ tip resistances, filled with a 1:1 (v/v) mixture of KCl 1 M and KAc 1 M. The clamped oocytes were exposed twice or thrice to ACh by incubation into a well containing ACh (at the EC50 for the assayed nAChR subtype) to obtain a control IACh peak amplitude. […]

[2] = target: T2, human neuronal α4β2 nAChR (Homo sapiens, UniProt P17787+P43681); test: Automated TEVC recording of ACh-evoked currents in Xenopus oocytes expressing human α4β2 nAChR; type: cell-based; details: for recovery of the ACh-evoked current after washout of bound spiroimine: 10 µM spiroimine, wash; for Hill Slope: concentration-inhibition curve, ACh 150 µM; for Hill Slope / IC50: 95% confidence interval in parentheses; for IC50: inhibition of ACh-evoked current, ACh 150 µM (EC50), −60 mV
T2 construct: expressed in transfected cells; host or cells: Xenopus laevis oocytes; cDNAs in pRc/CMV vector
T2 sequence (P43681 29-627 limits assumed): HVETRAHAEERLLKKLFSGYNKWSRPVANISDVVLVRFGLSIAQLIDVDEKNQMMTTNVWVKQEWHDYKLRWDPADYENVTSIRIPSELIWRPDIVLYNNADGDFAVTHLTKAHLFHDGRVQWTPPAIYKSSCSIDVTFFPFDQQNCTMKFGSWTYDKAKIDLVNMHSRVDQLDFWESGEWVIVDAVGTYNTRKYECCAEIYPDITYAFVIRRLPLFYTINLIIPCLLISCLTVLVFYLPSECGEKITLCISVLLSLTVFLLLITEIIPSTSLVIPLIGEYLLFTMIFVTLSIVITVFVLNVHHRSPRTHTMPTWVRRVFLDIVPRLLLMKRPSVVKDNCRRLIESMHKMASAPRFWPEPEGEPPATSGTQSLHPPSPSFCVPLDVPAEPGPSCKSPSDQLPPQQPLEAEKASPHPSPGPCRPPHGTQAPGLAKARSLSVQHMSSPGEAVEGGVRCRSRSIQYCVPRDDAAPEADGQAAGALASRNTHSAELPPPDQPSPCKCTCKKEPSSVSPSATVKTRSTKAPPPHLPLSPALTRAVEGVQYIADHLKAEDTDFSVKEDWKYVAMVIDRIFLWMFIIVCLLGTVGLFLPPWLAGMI
T2 sequence (P17787 26-502): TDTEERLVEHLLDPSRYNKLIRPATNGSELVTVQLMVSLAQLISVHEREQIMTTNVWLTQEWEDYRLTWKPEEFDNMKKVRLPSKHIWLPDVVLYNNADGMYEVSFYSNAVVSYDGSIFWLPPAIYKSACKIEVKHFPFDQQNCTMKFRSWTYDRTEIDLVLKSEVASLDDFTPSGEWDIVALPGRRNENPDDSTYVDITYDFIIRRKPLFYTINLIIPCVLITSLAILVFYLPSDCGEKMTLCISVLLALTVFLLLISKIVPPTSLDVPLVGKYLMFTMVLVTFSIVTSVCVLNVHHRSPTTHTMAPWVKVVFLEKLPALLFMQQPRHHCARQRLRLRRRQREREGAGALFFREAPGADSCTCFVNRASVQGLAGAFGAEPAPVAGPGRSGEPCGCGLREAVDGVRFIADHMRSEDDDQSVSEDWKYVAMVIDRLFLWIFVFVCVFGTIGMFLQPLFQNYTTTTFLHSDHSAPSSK
Source text: as §1, §2, §3, §4, §6

L-AChBP [3] = target: T3, L-AChBP (Lymnaea stagnalis, UniProt P58154); test: Stopped-flow Trp fluorescence kinetic and equilibrium binding to purified L-AChBP; details: for Kd / kon / koff: L-AChBP
T3 construct: made in house; host or cells: stably transfected HEK293S-GnTI- cells
T3 sequence (P58154 20-229): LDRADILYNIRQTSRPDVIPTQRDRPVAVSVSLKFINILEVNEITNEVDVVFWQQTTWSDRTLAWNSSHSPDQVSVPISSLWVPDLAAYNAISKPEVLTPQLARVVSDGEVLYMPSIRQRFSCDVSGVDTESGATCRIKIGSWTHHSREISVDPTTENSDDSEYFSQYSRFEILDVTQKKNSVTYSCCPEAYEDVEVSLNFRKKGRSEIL
Procedure: (§7) Equilibrium dissociation constants were determined either from ratios (Kd/(koff/kon)) of rate constants determined using multiple kinetic means (kon, koff, koff/GAL) or directly from stopped-flow measurements (Kd/SFeq, Kd/SPAeq) (see Experimental Procedures).
(§8) The procedures for stable expression and purification of A- and L-AChBPs are described in Appendix D. Rate constants for association (kon) and dissociation (koff) were determined by multiple kinetic means, largely as previously described. Measurement of kon and koff values entailed the direct admixture of reactants and monitoring the quenching of AChBP native Trp fluorescence. Individual rate constants were determined from linear regression of the experimental mono-exponential decay of Trp fluorescence intensity (kobs) using the linear “approach-to-equilibrium” relationship kobs = kon[spiroimine] + koff (Equation (3)). Additional measurements of koff (koff/GAL) employed stopped-flow measurement of the rate of occupation of free AChBP binding sites by a competing ligand (gallamine, used in large excess relative to its Kd) to form a non-quenching gallamine-AChBP complex. Equilibrium dissociation constants were determined either from the ratios of rate constants (Kd/(koff/kon)), or from stopped-flow measurements of the rates of gallamine or epibatidine binding to pre-equilibrated spiroimine-AChBP complexes formed using increasing spiroimine concentrations (Kd/SFeq), or by the scintillation proximity assay (SPA) where spiroimine competition against the binding of [^3H]epibatidine (to L-AChBP) or [^3H]methyllycaconitine (to A-AChBP) was monitored at equilibrium (Kd/SPAeq). […] The time course of [^3H]ligand binding was monitored over several hours.
(§9) A- and L-AChBP, flanked with an N-terminal FLAG epitope with residues numbered (-8)[…](0), were expressed as soluble, exported proteins using synthetic cDNA and stably-transfected HEK293S-GnTI^− cells selected for G418 resistance, and cultured in Dulbecco’s modified Eagle’s medium (MediaTech CellGro, Albany, NY, USA) containing fetal bovine serum (FBS) 2% (v/v). The conditioned medium was collected every 1–3 days for up to 4 weeks, supplemented with NaN3 0.02% (w/v) and stored at 4 °C. AChBPs were purified on immobilized anti-FLAG M2 antibody (Sigma-Aldrich) with elution using FLAG peptide 100 μg/mL in TRIS-HCl 50 mM pH 7.4, NaCl 150 mM, NaN3 0.02% (w/v). Purified proteins were dialyzed against the same buffer, concentrated by ultrafiltration, filtered on a 0.22 µm membrane, and stored on ice at 4 °C.

L-AChBP [4] = target: T3, L-AChBP; test: Scintillation proximity assay, competition against [3H]epibatidine binding to L-AChBP
Procedure: as §7, §8
(§10) A- and L-AChBP, flanked with an N-terminal FLAG epitope with residues numbered (-8)[…](0), were expressed as soluble, exported proteins using synthetic cDNA and stably-transfected HEK293S-GnTI^− cells selected for G418 resistance, and cultured in Dulbecco’s modified Eagle’s medium (MediaTech CellGro, Albany, NY, USA) containing fetal bovine serum (FBS) 2% (v/v). […]

A-AChBP [5] = target: T4, A-AChBP (Aplysia californica, UniProt Q8WSF8); test: Stopped-flow Trp fluorescence kinetic and equilibrium binding to purified A-AChBP; details: for kon / koff / Kd: A-AChBP
Procedure: as §7, §8, §9
Target sequence in this assay (Q8WSF8 entry or part of it): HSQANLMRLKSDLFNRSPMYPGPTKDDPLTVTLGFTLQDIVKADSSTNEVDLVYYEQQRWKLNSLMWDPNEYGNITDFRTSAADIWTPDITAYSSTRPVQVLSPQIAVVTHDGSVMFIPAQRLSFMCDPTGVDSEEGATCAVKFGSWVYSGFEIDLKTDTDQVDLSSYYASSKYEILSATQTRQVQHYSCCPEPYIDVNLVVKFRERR

A-AChBP [6] = target: T4, A-AChBP; test: Scintillation proximity assay, competition against [3H]methyllycaconitine binding to A-AChBP; design: made in house; host or cells: stably transfected HEK293S-GnTI- cells
Procedure: as §7, §8, §10
Target sequence in this assay (Q8WSF8 entry or part of it): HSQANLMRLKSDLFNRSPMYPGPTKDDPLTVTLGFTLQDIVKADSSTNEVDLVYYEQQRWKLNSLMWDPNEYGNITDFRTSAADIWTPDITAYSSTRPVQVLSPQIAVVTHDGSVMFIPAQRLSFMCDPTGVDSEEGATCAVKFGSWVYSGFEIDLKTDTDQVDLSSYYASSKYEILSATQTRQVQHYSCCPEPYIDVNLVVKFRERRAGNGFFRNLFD

[7] = tested on: Torpedo muscle-type α1_2βγδ nAChR; test: Manual TEVC recording of ACh-evoked currents in Xenopus oocytes micro-transplanted with Torpedo electrocyte membranes; type: cell-based, Torpedo marmorata; details: from IC50 values
Source text: as §1, §2, §3, §4, §5

[8] = target: nicotinic acetylcholine receptors; design: method as in PMID 35049904; details: cited from earlier work
[9] = calculated from the rate constants, read-out: Kd/(koff/kon)
[10] = quenching of native Trp fluorescence
[11] = quenching of native Trp fluorescence, read-out: koff (converted)
[12] = stopped-flow on pre-equilibrated complexes, single experiment in triplicate, read-out: Kd/SFeq
[13] = stopped-flow with competing gallamine in large excess, read-out: koff/GAL (converted)
[14] = Kd/(koff/kon), calculated from the rate constants
[15] = Kd/SFeq, stopped-flow on pre-equilibrated complexes, single experiment in triplicate
[16] = read-out: Kd values (range of magnitude)

Row | SMILES | Hill Slope [1] | Hill Slope (human neuronal α7 nAChR) | IC50 (human neuronal α7 nAChR) [µM] | recovery of the ACh-evoked current after washout of bound spiroimine [2] | Hill Slope [2] | IC50 [2] [µM] | Kd (L-AChBP [3]; [9]) [µM] | kon (L-AChBP [3]; [10]) [M⁻¹ s⁻¹] | koff (L-AChBP [3]; [11]) [s⁻¹] | Kd (L-AChBP [3]; [12]) [µM] | koff (L-AChBP [3]; [13]) [s⁻¹] | Kd (L-AChBP [4]) [µM] | kon (A-AChBP [5]; [10]) [M⁻¹ s⁻¹] | koff (A-AChBP [5]; [11]) [s⁻¹] | koff (A-AChBP [5]; [13]) [s⁻¹] | Kd (A-AChBP [5]; [14]) [µM] | Kd (A-AChBP [5]; [15]) [µM] | Kd (A-AChBP [6]) [µM] | Kd (L-AChBP [3]; [16]) [µM] | also measured
1 | CC1=NCCCC12CCCCC21OCCO1 (racemic) [Racemic (±)-4, 7-methyl-1,4-dioxa-8-azadispiro[4.0.5.4]pentadec-7-ene] | ~1 ^b | 0.61 (0.47–0.75) ^b | 2.11 | fast reversibility; also recorded: fast and complete | 1.08 (0.86–1.29) ^b | 6.96 | 1.7 | 6e+07 | 103 | 0.32 | 112 | 2.6 ± 1.9 | 1.05e+08 | 300 | 250 | 2.9 | 4.2 | 2.4 ± 1.5 | – | recovery of the ACh-evoked current after washout of bound spiroimine ([1]; 10 µM spiroimine, washout with ACh, desensitized state): full recovery of the nicotinic current; Kd (L-AChBP [3]; stopped-flow on pre-equilibrated complexes, biphasic curve, read-out: Kd/SFeq, second constant from a biphasic curve): 15 µM
2 | CC1=NCCC[C@]12CCCCC21OCCO1 [Spiroimine (+)-4 R, 7-methyl-1,4-dioxa-8-azadispiro[4.0.5.4]pentadec-7-ene] | ~1 ^b | 0.78 (0.54–1.01) ^b | 4.88 | fast and complete | 0.83 (0.15–1.52) ^b | 9.31 | – | – | – | 12 | – | 12 ± 3 | 1.23e+08 | 267 | 233 | 2.2 | 3.1 | 2.3 ± 0.4 | ~10 | selectivity for the α1_2βγδ nAChR compared with the α4β2 subtype [7]: 25 fold; selectivity for the α1_2βγδ nAChR compared with the α7 subtype [7]: 13 fold; higher affinity compared with the (−)-4 S enantiomer (human neuronal α7 nAChR; α7 nAChR, from Table 1): ca. 5 fold; agonistic activity (nAChR channel opening) ([2]; spiroimine applied alone): elicited no inward current per se; higher affinity compared with the (−)-4 S enantiomer ([2]; α4β2 nAChR, from Table 1): ca. 5 fold; higher affinity compared to enantiomer (−)-4 S (L-AChBP [3]; L-AChBP (text: the two AChBPs)): ca. 2 fold; higher affinity compared to enantiomer (−)-4 S (A-AChBP [5]; A-AChBP (text: the two AChBPs)): ca. 2 fold
3 | CC1=NCCC[C@@]12CCCCC21OCCO1 [Spiroimine (−)-4 S, 7-methyl-1,4-dioxa-8-azadispiro[4.0.5.4]pentadec-7-ene] | ~1 ^b | 0.58 (0.44–0.72) ^b | 1.45 | – | 0.53 (0.32–0.74) ^b | 1.41 | 0.41 | 1.3e+08 | 53.3 | 0.32 | 103 | 3.4 | 1.02e+08 | 433 | 400 | 4.3 | 5.4 | 2.4 ± 0.5 | ~0.1 | recovery of the ACh-evoked current after washout of bound spiroimine (human neuronal α7 nAChR; 10 µM spiroimine, wash with Ringer's solution): fast and complete
4 | CN(C)C1CSSC1 [nereistoxin, N,N-dimethyl-1,2-dithiolan-4-amine] | – | – | – | – | – | – | – | – | – | – | – | – | – | – | – | – | – | – | – | IC50 values as nicotinic antagonist [8]: sub-millimolar
